Data published in patent publication US20180009764A1, “METHOD FOR TREATING MACROPHAGE MIGRATION INHIBITORY FACTOR (MIF)-IMPLICATED DISEASES AND CONDITIONS WITH IODO PYRIMIDINE DERIVATIVES” (UNIVERSITY OF LOUISVILLE RESEARCH FOUNDATION, INC., priority 2009, published 2018).

How the values were obtained:
[1] = in vitro; assay type: in vitro ADME; settings: human, plasma, Human Plasma Protein Binding % Bound
Source text: Plasma protein binding was ascertained using dialysis equilibrium methods known in the art.

[2] = target: T1, MIF (Homo sapiens, UniProt P14174); experiment: MIF cell lysate enzymatic inhibition; assay type: biochemical; settings: cell lysates
T1 construct: the enzymatic activity of MIF present in cell lysates; endogenous in cells
T1 sequence (P14174 2-115 limits assumed): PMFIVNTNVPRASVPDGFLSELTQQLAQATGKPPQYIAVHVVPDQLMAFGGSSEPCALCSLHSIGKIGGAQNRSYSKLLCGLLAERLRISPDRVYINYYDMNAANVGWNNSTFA
Protocol: Normal or transformed cell lysates can be used to determine the concentration inhibiting the enzymatic activity of MIF present in cell lysates. Cells are cultured in the appropriate media to the required number of cells, collected, and lysed. Compounds to be characterized are solubilized in DMSO and serial dilutions are performed in order to obtain a range of concentrations including complete and no quantifiable inhibition.

[3] = Microsomal stability in human liver microsomes; assay type: in vitro ADME; settings: both, human, microsomes, pH 7.4
Protocol: Stability in human liver microsomes was tested over […] at 37° C. using pooled mixed gender human liver microsomes. Liver microsomes were prepared at 1.0 mg/ml of microsomal protein in a 100 mM potassium phosphate pH 7.4 buffer with 1 mM NADPH. The media was incubated at 37° C. with the compound in solution in DMSO. The concentration of the compound was followed by LC/MS-MS as a function of time. Samples were assayed at t=0, 30, 60 and 120 minutes. Testosterone was used as a positive control. The same experiment was performed with mouse liver microsomes instead of human liver microsomes.

[4] = system: Caco-2 monolayers; experiment: Caco-2 cell permeability and transport; assay type: in vitro ADME; set-up: Caco-2 Permeability Papp B-A / Caco-2 Permeability Papp A-B: unit not given here; settings: for Caco-2 Permeability Papp B-A: basolateral-to-apical
Protocol: (§1) Cell permeability and transport mechanisms in Caco-2 and MDR1-MDCK monolayers experiments were performed in triplicate in the apical-to-basolateral and basolateral-to-apical direction using […]® wells containing either Caco-2 or MDR1-MDCK monolayers. A modified Hanks buffer pH 7.4 was used in both reservoir and receiver wells with the addition of 1% BSA in the receiver side. Confluent monolayers were used and their integrity was verified using reference compounds (Atenolol as a low permeability reference compound and Propanolol as a high permeability reference compound). A sample in the basolateral and apical sides was taken after 2 hours and the concentration measured by LC/MS-MS.

[5] = Caco-2 cell permeability and transport; assay type: in vitro ADME; set-up: Caco-2 Permeability Papp B-A / Caco-2 Permeability Papp A-B: unit not given here; settings: human, Caco-2, pH 7.4
Protocol: as §1

[6] = system: p53; experiment: p53 up regulation, p53 luciferase assay; assay type: cell-based; settings: 10 μM; FIG. 5
Protocol: The up regulation of p53 was determined using a commercially available p53 luciferase assay kit. 1×10^5 cells/ml were plated in a 24 well plate and allowed to adhere overnight. MIF antagonists were added to the cells at the indicated concentrations for 16 hours and transiently co-transfected with 0.125 μg/well of p53-responsive luciferase promoter plasmid (Promega, Madison, Wis.) together with 0.0125 μg/well Renilla pRL-null plasmid (Promega) using Lipofectamine (Invitrogen) transfection reagent. After 24 hrs, Firefly and Renilla luciferase activities were measured by the Dual Luciferase Reporter Assay System (Promega, Madison, Wis.) on a TD-20/20 luminometer (Turner Designs).

[7] = system: Du 145; experiment: Inhibition of tumor cells proliferation (CellTiter Glo); assay type: cell-based; settings: Homo sapiens, 72 hours
Protocol: Inhibition of the proliferation of tumor cells was investigated in vitro in several tumor cell lines. Cells of the desired tumor cell line were plated at 2×10^5 cells/ml in 96 well plates. Twice the indicated concentrations of the compounds of the invention were added to cells the following day in an equal volume of media. 72 hours later, cells were lysed and subjected to ATP determination using the CellTiter Glo-Luminescent Cell Viability Assay kit (Promega, Madison, Wis.). Experiments were done in triplicate. Results for the inhibition of cells proliferation are reported as IC50 (the concentration leading to a 50% inhibition of proliferation of the cell population) and are listed in Table 6. FIGS. 3 and 4 show bar graphs comparing the IC50s of specific embodiments of compounds of the invention across multiple tumor cell lines.

[8] = system: Chick Chorioallantoic Membrane (CAM); experiment: Chick chorioallantoic membrane (CAM) assay, o ring; assay type: in vivo; settings: for Blood Vessel Density: o ring
Protocol: (§2) 8 groups with 10 embryos in each group were used in the experiment described below. Fresh fertile eggs were incubated for 3 days in a standard egg incubator at 37° C. for 3 days. On Day 3, eggs were cracked under sterile conditions and embryos were placed into 20×100 mm plastic plates and cultivated at 37° C. in an embryo incubator with a water reservoir on the bottom shelf. Air was continuously bubbled into the water reservoir using a small pump so that the humidity in the incubator is kept constant. On Day 6, a sterile silicon “o” ring was placed on each CAM and test compound dissolved in 0.5% methylcellulose was placed into each “o” ring in a sterile hood. Paclitaxel was used as a positive control. Embryos were returned to the incubator after addition of test material. Control embryos received 10 μL of vehicle alone. On Day 8, embryos were removed from the incubator and kept at room temperature while blood vessel density were determined under each “o” ring using an image capturing system at a magnification of 160×. The blood vessel density was measured using an angiogenesis scoring system in that arithmetic numbers 0 to 5 (or exponential numbers 1 to 32) are used to indicate number of blood vessels present at the treatment sites on the CAM. Number 5 represents the highest density and 0 represents no angiogenesis. The percent of inhibition at each dosing site was calculated using the score recorded for that site divided by the mean score obtained from the appropriate control samples for each individual experiment. The percent of inhibition for each dose of a given compound was calculated by pooling all results obtained for that dose from 8-10 embryos.

[9] = system: Chick Chorioallantoic Membrane (CAM); experiment: CAM assay with matrigel plugs; assay type: in vivo
Protocol: as §2
Another experiment was performed using a protocol similar to the one described above but using matrigel plugs instead of o ring to deliver the test material to the CAM. Results are summarized in Table 9 below and show a statistically significant inhibition of angiogenesis at the high concentrations of test material.

[10] = system: LOX-IMV1 tumor cell line; experiment: Inhibition of cell migration (Oris Cell Migration Assay); assay type: cell-based; settings: 72 hrs, even at low concentrations (0.03 μM), FIG. 7
Protocol: The LOX-IMV1 tumor cell line was used to determine the inhibition of cell migration using the Oris Cell Migration Assay kit (Promega, Mich.). Briefly, adherent cells were seeded into each well of the kit according to kit instructions. Concentrations of cells in the migration zone were determined to calculate IC50 values. Prior to the migration assay, cell proliferation IC50s were determined to differentiate between inhibition of proliferation and migration. […] A slightly modified method was also used to determine the inhibition of invasion.

[11] = Pharmacokinetics parameters in rats; assay type: in vivo; settings: rat, plasma
Protocol: The pharmacokinetic parameters of several compounds were investigated in rodents. Both oral and iv administration were investigated in rats. Blood samples were collected over time; plasma was analyzed using an LC/MS-MS method. Pharmacokinetic parameters were calculated using Win-NonLin. Terminal plasma half-lives were 7.10 hr for ACT-MIF-001, 1.66 hr for ACT-MIF-002, and 1.50 hr for ACT-MIF-003. […] The volume of distribution values were 72666 mL/kg for ACT-MIF-001, 2118 mL/kg for ACT-MIF-002, and 1926 mL/kg for ACT-MIF-003.

[12] = system: MDR1-MDCK monolayers; experiment: MDR1-MDCK cell permeability and transport; assay type: in vitro ADME
Protocol: as §1

Row | IC50 [2] [nM] | Metabolic Stability in Human Microsomes % Remaining ([3]; 0 h) [%] | Metabolic Stability in Human Microsomes % Remaining ([3]; 1 h) [%] | Caco-2 Permeability Class [4] | efflux ratio at 2 h [5] | IC50 [7] [nM] | SMILES | other results
1 | – | – | – | – | – | – | CC(=O)CC(c1ccccc1)c1c(O)c2ccccc2oc1=O (centres unmarked) [Warfarin, reference compound] | fraction unbound [1]: 0.01
2 | 570 | 100 | 73 | – | – | – | CC(=O)Nc1cccc(-c2cc(I)ncn2)c1 [ACT-MIF-021, 4-Iodo-6-(3-acetylaminophenyl)pyrimidine] | –
3 | – | – | – | Low | 1.5 | – | Ic1cc(-c2cncc3ccccc23)ncn1 [ACT-MIF-025, 4-Iodo-6-(isoquinolin-4-yl)pyrimidine] | –
4 | 230 | – | – | – | – | – | Ic1cc(-c2ccnc3ccccc23)ncn1 [ACT-MIF-036, 4-Iodo-6-(quinolin-4-yl)pyrimidine] | –
5 | 270 | – | – | – | – | < 100000 | NC(=O)c1ccc(-c2cc(I)ncn2)cc1 [ACT-MIF-034, 4-Iodo-6-(4-aminocarbonylphenyl)pyrimidine] | p53 regulation [6]: implicated in p53 regulation
6 | 190 | 100 | 0 | – | – | < 10000 | Fc1ccc(-c2cc(I)ncn2)c(F)c1 [ACT-MIF-017, 4-Iodo-6-(2,4-difluorophenyl)pyrimidine] | –
7 | – | – | – | – | – | – | CC(=O)O[C@H]1C(=O)[C@@]2(C)[C@H]([C@H](OC(=O)c3ccccc3)[C@]3(O)C[C@H](OC(=O)[C@H](O)[C@@H](NC(=O)c4ccccc4)c4ccccc4)C(C)=C1C3(C)C)[C@]1(OC(C)=O)CO[C@@H]1C[C@@H]2O [Paclitaxel, reference compound] | Blood Vessel Density ([8]; 6 nM per CAM): 2.8 ± 0.7; Blood Vessel Counts ([9]; 2 nM per CAM): 15.5 ± 2.1
8 | 115 | 100 | 82 | High | 1.1 | < 5000 | CCOc1ccc(-c2cc(I)ncn2)cc1F [ACT-MIF-033] | p53 regulation [6]: implicated in p53 regulation; Caco-2 Permeability Papp B-A ([4]; pH 7.4, 2 hours): 3.0
9 | 250 | 100 | 82 | High | 1.4 | 36700 | Ic1cc(-c2cccnc2)ncn1 [ACT-MIF-006, 4-Iodo-6-(pyridin-3-yl)pyrimidine] | Blood Vessel Counts ([9]; 0.3 nM per CAM): 38.8 ± 3.5; Blood Vessel Counts ([9]; 3 nM per CAM): 35.8 ± 5.4; Blood Vessel Counts ([9]; 30 nM per CAM): 33.5 ± 1.7; Inhibition of cell migration [10]: significant inhibition of migration
10 | – | – | – | High | 0.6 | – | Fc1ncccc1-c1cc(I)ncn1 [ACT-MIF-011, 4-Iodo-6-(2-fluoropyridin-3-yl)pyrimidine] | –
11 | – | – | – | – | – | < 40000 | Ic1cc(-c2ccsc2)ncn1 [ACT-MIF-022, 4-Iodo-6-(thiophen-3-yl)pyrimidine] | –
12 | – | – | – | – | – | – | Ic1cc(-c2cccs2)ncn1 [ACT-MIF-030, 4-Iodo-6-(thiophen-2-yl)pyrimidine] | p53 regulation [6]: implicated in p53 regulation; Blood Vessel Counts ([9]; 0.3 nM per CAM): 35.6 ± 1.0; Blood Vessel Counts ([9]; 3 nM per CAM): 32.7 ± 3.2; Blood Vessel Counts ([9]; 30 nM per CAM): 28.1 ± 2.0
13 | 37 | 100 | <2 | Low | – | < 10000 | COc1ccc(-c2cc(I)ncn2)c(F)c1F [ACT-MIF-001, 4-Iodo-6-(2,3-difluoro-4-methoxyphenyl)pyrimidine] | Vd ([11]; intravenous, read-out: Volume of distribution): 72.7 L/kg; clearance ([11]; iv, after i.v. administration): 763 mL/min/kg; half-life ([11]; read-out: Terminal plasma half-life (converted)): 7.1 h; Blood Vessel Density ([8]; 0.3 nM per CAM): 10.5 ± 3.4; Blood Vessel Density ([8]; 3 nM per CAM): 4.1 ± 0.8; Blood Vessel Density ([8]; 30 nM per CAM): 1.8 ± 0.3; Anti-angiogenic properties ([8]; CAM assay, in words): high anti-angiogenic properties; Brain penetration classification [12]: Low; P-gp Substrate [12]: No; Efflux ([12]; class in words): Low; fraction unbound [1]: 0.017; Caco-2 Permeability Papp A-B ([4]; apical-to-basolateral, pH 7.4, 2 hours): <0.1; Caco-2 Permeability Papp B-A ([4]; pH 7.4, 2 hours): <0.1
